Assay results: publication PMC9253031, “Redox-sensitive doxorubicin liposome: a formulation approach for targeted tumor therapy” (Scientific Reports, 2022)

How the values were obtained:
[1] = tested on: C26 cell line (murine colon carcinoma cells); assay: MTT cytotoxicity, C26 cells; format: cell-based, mouse; settings: 48 h treatment
Experimental: (§1) C26 and NIH-3T3 cell lines were cultured at 37 °C in a 5% CO2/95% air humidified atmosphere in RPMI 1640 and DEMEM media, respectively; the media were supplemented with 10% FCS and 100 U/mL penicillin, and 100 μg/mL streptomycin.
(§2) C26 and NIH-3T3 cells were seeded at 5000 cells/well into 96-well plates. […] After 48 h incubation at 37 °C, the cells were washed with PBS and MTT (10 μL/well MTT and 100 μL/well cell media) was added. After an additional incubation for 4 h at 37 °C, the absorbance of MTT was measured using a microplate reader (Awareness Technology Inc., USA) at 570 nm. Relative cell death (R) was calculated as follows:
(§3) R = 1 − [(A sample − A blank)/(A control − A blank)], where A sample and A control are the absorbances of the cells incubated with the sample solutions and the culture medium as the control group, respectively. A blank is the absorbance of MTT solution in a well without cells. The IC50 values were calculated using CalcuSyn Version 2.0 software (BIOSOFT, UK)[52].

C26 tumor = assay: Anti-tumor efficacy and survival in mice bearing C26 colon cancer; settings: single i.v. dose 10 mg/kg Dox
[2] = tested on: NIH-3T3 cell line (mouse embryonic fibroblast cells); assay: MTT cytotoxicity, NIH-3T3 cells; format: cell-based; settings: 48 h treatment
Experimental: as §1, §2, §3

[3] = Plasma Dox concentration and pharmacokinetics after i.v. administration; format: in vivo, BALB/c mice; settings: Dox 10 mg/kg, mice
C26 cells = assay: Dox cellular uptake by spectrofluorometry; format: cell-based, mouse; settings: 1 and 3 h incubation, compared to Caelyx
Experimental: C26 cells were seeded at 1 × 10^6 cells/well in 6-well plates and incubated overnight. […] After 1 and 3 h of incubation at 37 °C, cells were washed with cold PBS. Then, acidified isopropyl alcohol (0.9 mL) was added to each well and transferred to a 2 mL vial and stored at 4 °C for 24 h. Samples were centrifuged for 10 min at 14,000 rpm.

Row | melting point | Structure (SMILES) | IC50 (C26) 48 h [1] | MST (median survival time) (C26 tumor) | TGD (tumor growth delay) (C26 tumor) | TTE (time to reach end point) ± SD (C26 tumor; C26 tumor, BALB/c mice, listed as Dox.HCl, 10 mg/kg) | IC50 (NIH) 48 h [2] | AUC (total area under the plasma concentration-time curve) [3] | Cl (clearance) [3] | Cellular uptake of Dox (spectrofluorometry) (C26 cells)
1 | – | COc1cccc2c1C(=O)c1c(O)c3c(c(O)c1C2=O)C[C@@](O)(C(=O)CO)C[C@@H]3O[C@H]1C[C@H](N)[C@H](O)[C@H](C)O1.Cl [Dox, Doxorubicin hydrochloride] | 0.01 ± 0.010 µg/mL | 33.10 days | 10.12% | 32.40 ± 5.94 days | 0.042 ± 0.013 µg/mL | 7200 ng·h/mL | 1.38 (mg)/(μg/mL)/h | highest cellular uptake
2 | 82 °C | O=C(O)CCCCCCCCC[Se][Se]CCCCCCCCCC(=O)O | – | – | – | – | – | – | – | –
